Earlier results, collected in patent CN106749267A, “新的表皮生长因子受体抑制剂及其应用” (Nanjing Sanhome Pharmaceutical Co Ltd, priority 2015, dated 2017).
Where two headings read alike, the source gives them in different places.

Row | Compound | blood glucose increase side effect (literature report, hyperglycemia from EGFR TKIs) | blood glucose increase side effect (in vivo)
1 | C=CC(=O)Nc1cccc(Nc2nc(Nc3ccc(N4CCN(C(C)=O)CC4)cc3OC)ncc2C(F)(F)F)c1 [Rociletinib] | 一定程度的升高 | 
2 | C=CC(=O)Nc1cc(Nc2nccc(-c3cn(C)c4ccccc34)n2)c(OC)cc1N(C)CCN(C)C [AZD9291] |  | 一定程度的升高
